Values quoted from earlier work as cited in patent US20070286864A1, “Combined treatment with an EGFR kinase inhibitor and an agent that sensitizes tumor cells to the effects of EGFR kinase inhibitors” (priority 2006, published 2007).

Assays:
H292 cells = conditions: erlotinib single agent (10 μM), sensitive = maximum growth inhibition greater than 50%
H460 cells = conditions: erlotinib single agent (10 μM), relatively insensitive = maximum growth inhibition less than 50%
H358 cells = conditions: erlotinib single agent (10 μM), sensitive = maximum growth inhibition greater than 50%
H1703 cells = conditions: erlotinib single agent (10 μM), relatively insensitive = maximum growth inhibition less than 50%
Calu6 cells = conditions: erlotinib single agent (10 μM), relatively insensitive = maximum growth inhibition less than 50%

For `C#Cc1cccc(Nc2ncnc3cc(OCCOC)c(OCCOC)cc23)c1` [erlotinib, [6,7-bis(2-methoxyethoxy)-4-quinazolin-4-yl]-(3-ethynylphenyl)amine], the “sensitivity of cell line to erlotinib” value (H292 cells) is given as “sensitive”, the “sensitivity of cell line to erlotinib” value (H460 cells) is given as “relatively insensitive” and the “sensitivity of cell line to erlotinib” value (H358 cells) is given as “sensitive”. For the same molecule, the “sensitivity of cell line to erlotinib” value (H1703 cells) was “relatively insensitive” and the “sensitivity of cell line to erlotinib” value (Calu6 cells) was “relatively insensitive”.
